Measured values taken from publication PMC8243515 (JHEP Reports, 2021).
“Also recorded” adds a separate entry of the source. Where two headings read alike, the source gives them in different places.

Columns and labels:
HBV [1] = assay: microbe, parasite or virus in culture; assay type: cell-based, hepatitis B virus genotype D; details: for Emax: read-out: %Imax; for p2 cells still infected at high inhibitor concentrations: high concentrations of late-phase reference inhibitors; for %Imax, p2 infection: percent maximum inhibition
HBV [2] = assay: microbe, parasite or virus in culture; assay type: cell-based, hepatitis B virus genotype D; details: for effect on p1 cell infection (phenotype): reference inhibitors, assay validation; for %Imax, p1 infection: percent maximum inhibition
NTCP [3] = molecular target: T1, NTCP (Homo sapiens, UniProt Q14973); assay: Binding assay of Alexa633-labelled HBV preS1 peptide; details: for effect on preS1 peptide binding to NTCP: cytochalasin D tested up to 50 μM
T1 sequence (Q14973 1-349): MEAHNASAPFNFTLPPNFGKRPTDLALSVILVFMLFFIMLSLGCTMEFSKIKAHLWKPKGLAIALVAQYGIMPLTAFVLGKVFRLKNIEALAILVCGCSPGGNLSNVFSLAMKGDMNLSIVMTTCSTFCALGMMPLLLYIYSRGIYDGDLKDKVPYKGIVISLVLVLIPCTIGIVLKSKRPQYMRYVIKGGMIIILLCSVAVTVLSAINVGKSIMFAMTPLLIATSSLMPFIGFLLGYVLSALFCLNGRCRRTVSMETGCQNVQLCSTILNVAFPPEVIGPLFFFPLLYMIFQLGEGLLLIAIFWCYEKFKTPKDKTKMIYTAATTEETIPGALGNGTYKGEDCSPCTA

SARS-CoV-2 [4] = assay type: cell-based
HIV-1 = assay type: cell-based, HIV-1 strain LAI; details: Fig. S3
HBV [5] = assay: Time-of-addition experiments, HBV infection; assay type: cell-based, hepatitis B virus; details: pretreatment/cotreatment vs post-inoculation 1-7 dpi
NTCP [6] = molecular target: T1, NTCP; details: transiently NTCP-transfected U2OS cells; cited from earlier work
HepG2-NTCPsec+ cells = assay: Cell viability by automated nuclei counting; assay type: cell-based, human; details: hit confirmation DRC, 10-point serial dilutions starting at 25 μM
HBV and HDV = details: cited from earlier work
HBV [7] = details: read-out: Published EC50, cited from earlier work
[8] = system: HBV preS1 peptide internalisation; assay: Live-cell imaging of Alexa633-labelled preS1 peptide internalisation; assay type: cell-based; details: after transfer to 37°C, confocal live-cell imaging
SARS-CoV-2 [9] = details: virus-free, live-cell assay; cited from earlier work
HBV [10] = assay: Stably HBV replicating HepAD38 cells, supernatant HBV DNA by quantitative PCR; assay type: cell-based, hepatitis B virus; details: supernatant qPCR at 7 days post-treatment
HCV = assay type: cell-based
[11] = Hepatitis B virus, read-out: EC50 (μM), early HBV life cycle inhibitors
[12] = read-out: EC50, p1 infection, p1 cells, DRC of reference inhibitors

Compound: CCC(C)(C)C(=O)O[C@H]1C[C@@H](C)C=C2C=C[C@H](C)[C@H](CC[C@@H]3C[C@@H](O)CC(=O)O3)[C@H]21 [Simvastatin]
- Emax (HBV [1]; Hepatitis B virus): 99.9%

Compound: CC(C)OC(=O)[C@H](C)N[P@](=O)(CO[C@H](C)Cn1cnc2c(N)ncnc21)Oc1ccccc1 [GS-7340]
- EC50 (HBV [1]; Hepatitis B virus): < 0.05 µM
- Emax (HBV [1]; Hepatitis B virus): 99.4%

Compound: O=C(Nc1cccc2c(=O)cc(-c3nnn[nH]3)oc12)c1ccc(OCCCCc2ccccc2)cc1 [Pranlukast, pranlukast]
- EC50 (HBV [2]; [11]): 4.3 µM
- Imax (%), early HBV life cycle inhibitors (HBV [2]; p1 cells): 92%
- EC50 (NTCP [3]): 7.6 µM
- effect on preS1 peptide binding to NTCP (NTCP [3]): inhibited HBV preS1 binding
- effect on preS1 peptide binding to NTCP (NTCP [3]; listed as pranlukast): blocked the binding
- effect on SARS-CoV-2 infection (SARS-CoV-2 [4]; Fig. S3): only inhibited HIV-1; also recorded: but not pranlukast
- effect on HIV-1 infection (HIV-1): only inhibited HIV-1
- anti-HBV activity in time-of-addition experiments (HBV [5]): exhibited anti-HBV activity exclusively under the pretreatment/cotreatment conditions
- effect on NTCP bile acid transporter function (NTCP [6]): inhibits the bile acid transporter function

Compound: CN1c2cc3c(cc2N=C(c2ccc(C(=O)O)cc2)c2ccccc21)C(C)(C)CCC3(C)C [LE 135]
- %Imax (HBV [2]; p1 inhibitor, hit confirmation DRC): 94.5%
- EC50 (HBV [2]; p1 inhibitor, hit confirmation DRC, 10-point serial dilutions starting at 25 μM): 11.7 µM
- CC50 (HepG2-NTCPsec+ cells): > 25 µM

Compound: COc1cc(C(=O)NS(=O)(=O)c2ccccc2C)ccc1Cc1cn(C)c2ccc(NC(=O)OC3CCCC3)cc12 [zafirlukast]
- concentration significantly inhibiting HBV and HDV infection (HBV and HDV): 6 µM

Compound: Nc1ccn([C@@H]2CS[C@H](CO)O2)c(=O)n1 [LMV, lamivudine]
- EC50 (HBV [2]; Hepatitis B virus, read-out: EC50, p1 infection): > 10 µM
- EC50 (HBV [1]; Hepatitis B virus, read-out: EC50 (μM), late HBV life cycle inhibitors, infectious HBV genotype D, p2 cells): 0.02 µM
- p2 cells still infected at high inhibitor concentrations (HBV [1]): 2–5%
- Imax (%), late HBV life cycle inhibitors (HBV [1]; p2 cells): 98%

Compound: O=C1Cc2ccccc2C(=O)N1O [HID, N-hydroxyisoquinolinedione]
- EC50 (HBV [2]; [12]): > 50 µM
- effect on p1 cell infection (phenotype) (HBV [2]): did not affect the infection status of p1 cells
- effect on p2 cell infection / infectivity of HBV progeny (HBV [1]; after supernatant transfer): reduced number of infected p2 cells
- p2 cells still infected at high inhibitor concentrations (HBV [1]): 2–5%
- %Imax, p2 infection (HBV [1]; p2 cells): 99%
- EC50 (HBV [7]; System HepDES19, ref PMID 24858512): 4.2 µM

Compound: CC(C)OC(=O)OCOP(=O)(CO[C@H](C)Cn1cnc2c(N)ncnc21)OCOC(=O)OC(C)C.O=C(O)/C=C/C(=O)O [TDF, tenofovir disoproxil fumarate]
- EC50 (HBV [2]; [12]): > 50 µM
- effect on p1 cell infection (phenotype) (HBV [2]): did not affect the infection status of p1 cells
- effect on p2 cell infection / infectivity of HBV progeny (HBV [1]; after supernatant transfer): reduced number of infected p2 cells
- p2 cells still infected at high inhibitor concentrations (HBV [1]): 2–5%

Compound: IFNα
- antiviral effect on early HBV life cycle steps (HBV [2]; p1 cells treated over several weeks, Fig. S5A): no or only insignificant antiviral effects
- antiviral effect on late HBV life cycle steps (HBV [1]): no or only insignificant antiviral effects

Compound: CC(C)(C)c1cc(C(=O)/C=C/c2ccc(C(=O)O)cc2)cc(C(C)(C)C)c1 [Ch 55]
- %Imax (HBV [1]; p2 inhibitor, hit confirmation DRC): 99.9%
- EC50 (HBV [1]; p2 inhibitor, hit confirmation DRC, 10-point serial dilutions starting at 25 μM): 3.21 µM
- CC50 (HepG2-NTCPsec+ cells): > 25 µM

Compound: COC(=O)C1=C(C)NC(c2ncc(F)cc2F)=N[C@H]1c1ccc(F)cc1Cl [Bay41-4109]
- %Imax, p1 infection (HBV [2]; p1 cells): 99%
- EC50 (HBV [2]; [12]): 1.3 µM
- %Imax, p2 infection (HBV [1]; p2 cells): 99%

Compound: O=C(CN(c1cc(C(F)(F)F)ccc1Cl)S(=O)(=O)c1ccccc1)NCc1ccncc1 [CCC-0975]
- %Imax, p1 infection (HBV [2]; p1 cells): 60%
- EC50 (HBV [2]; [12]): ~5 µM
- effect on p1 cell infection (phenotype) (HBV [2]): inhibited HBV infection in p1 and p2 cells
- effect on p2 cell infection / infectivity of HBV progeny (HBV [1]; after supernatant transfer): inhibited HBV infection in p1 and p2 cells
- EC50 (HBV [1]; read-out: EC50, p2 infection (after supernatant transfer), p2 cells): ~8 µM
- EC50 (HBV [7]; System HepDE19, ref PMID 22644022): 10 µM

Compound: O=C(O)P(=O)(O)O [Foscarnet]
- Emax (HBV [1]; Hepatitis B virus): 94.2%

Compound: COC(=O)Nc1nc2ccc(C(=O)c3cccs3)cc2[nH]1 [Nocodazole]
- Emax (HBV [1]; Hepatitis B virus): 91.8%

Compound: C#CCC(Cc1cnc2nc(N)nc(N)c2n1)c1ccc(C(=O)N[C@@H](CCC(=O)O)C(=O)O)cc1 (stereo partly drawn) [Pralatrexate]
- Emax (HBV [1]; Hepatitis B virus): 102%

Compound: C=C1[C@H](CO)[C@@H](O)C[C@@H]1n1cnc2c(=O)[nH]c(N)nc21 [Entecavir]
- Emax (HBV [1]; Hepatitis B virus): 96.7%

Compound: Cc1nc2ccc(CN(C)c3ccc(C(=O)N[C@@H](CCC(=O)O)C(=O)O)s3)cc2c(=O)[nH]1 [Raltitrexed]
- Emax (HBV [1]; Hepatitis B virus): 93.7%

Compound: Nc1ncn([C@H]2C[C@H](O)[C@@H](CO)O2)c(=O)n1 [Decitabine]
- Emax (HBV [1]; Hepatitis B virus): 91.9%

Compound: C=C1[C@@H](C)[C@H]2[C@H](Cc3ccccc3)NC(=O)[C@]23[C@H](OC(C)=O)/C=C/[C@@](C)(O)C(=O)[C@@H](C)C/C=C/[C@H]3[C@@H]1O [Cytochalasin D, cytochalasin D]
- EC50 (HBV [2]; [11]): 0.07 µM
- Imax (%), early HBV life cycle inhibitors (HBV [2]; p1 cells): 86%
- effect on preS1 peptide binding to NTCP (NTCP [3]): did not prevent the binding
- effect on preS1 peptide binding to NTCP (NTCP [3]; listed as cytochalasin D): did not interfere with receptor–virus binding
- effect on internalisation of HBV preS1 peptide [8]: prevented the internalisation of HBV; also recorded: partially reduced; also recorded: partial retention of the peptide at the plasma membrane
- effect on SARS-CoV-2 infection (SARS-CoV-2 [4]; Fig. S3): minor activity in both virus systems; also recorded: inhibits SARS-CoV-2 infection
- effect on HIV-1 infection (HIV-1): minor activity in both virus systems
- anti-HBV activity in time-of-addition experiments (HBV [5]): exhibited anti-HBV activity exclusively under the pretreatment/cotreatment conditions
- effect on SARS-CoV-2 cell entry (SARS-CoV-2 [9]): prevent SARS-CoV-2 cell entry

Compound: Cc1c(C(=O)NN2CCCCC2)nn(-c2ccc(Cl)cc2Cl)c1-c1ccc(Cl)cc1 [Rimonabant]
- Emax (HBV [1]; Hepatitis B virus): 99.4%

Compound: CC[C@@H]([C@H](C)O)n1ncn(-c2ccc(N3CCN(c4ccc(OC[C@@H]5CO[C@@](Cn6cncn6)(c6ccc(F)cc6F)C5)cc4)CC3)cc2)c1=O [Posaconazole]
- Emax (HBV [1]; Hepatitis B virus): 96.4%

Compound: CC[C@H](C)C(=O)O[C@H]1CCC=C2C=C[C@H](C)[C@H](CC[C@@H]3C[C@@H](O)CC(=O)O3)[C@H]21 [Mevastatin]
- Emax (HBV [1]; Hepatitis B virus): 101%

Compound: O=c1[nH]c(=O)n([C@H]2C[C@H](O)[C@@H](CO)O2)cc1F [Floxuridine]
- Emax (HBV [1]; Hepatitis B virus): 97.6%

Compound: CCOC(=O)C1=C(CN2CCOCC2)NC(c2nccs2)=NC1c1ccc(F)cc1Br (stereo not drawn) [GLS4]
- HBcAg phenotype under CpAM treatment (HBV [2]; class II core protein allosteric modifiers, Fig. S4): aggregated HBcAg phenotype

Compound: CC[C@]1(O)C[C@H]2CN(CCc3c([nH]c4ccccc34)[C@@](C(=O)OC)(c3cc4c(cc3OC)N(C=O)[C@H]3[C@@](O)(C(=O)OC)[C@H](OC(C)=O)[C@]5(CC)C=CCN6CC[C@]43[C@@H]65)C2)C1 [Vincristine]
- Emax (HBV [1]; Hepatitis B virus): 96.9%

Compound: Cc1cccc([C@H](C)c2cnc[nH]2)c1C [Dexmedetomidine, dexmedetomidine]
- Imax (%), late HBV life cycle inhibitors (HBV [1]): 82%
- effect on p2 cell infection / infectivity of HBV progeny (HBV [1]): interfered with the infectivity of HBV progeny; also recorded: mitigated the infectivity of secreted progeny HBV particles; also recorded: strongly suppresses the infectivity of secreted progeny HBV particles
- EC50 (HBV [1]; Hepatitis B virus, read-out: EC50 (μM), late HBV life cycle inhibitors): 6.2 µM
- EC50 (HBV [1]; read-out: EC50 (μM), late HBV life cycle inhibitors): 6.23 µM
- effect on HBV replication / HBV DNA secretion in HepAD38 cells (HBV [10]): without reducing HBV replication or genome secretion; also recorded: did not inhibit HBV DNA replication
- effect on HCV replication and secretion (HCV): no inhibition was observed; also recorded: do not interfere in the production and spread
- effect on SARS-CoV-2 infection (SARS-CoV-2 [4]): no inhibition was observed; also recorded: do not interfere in the production and spread
